Assay results as given in patent publication US9644006B2, “Carrier peptides for cell delivery” (priority 2011, dated 2017).
Where two headings read alike, the source gives them in different places.

Tested on: Vero cells
Assay: Effect of cytoskeleton depolymerizing drugs on delivery peptide (DynPro) movement
Format: cell-based, African green monkey
[1] = Vero cells with 10 μM DynPro, Nocodazole 2.5 μM 30 min, LatrunculinA 0.1 μM

Row | Structure (SMILES) | effect of the drug on delivery peptide transport movement [1] | effect of the drug on delivery peptide transport movement
1 | COC(=O)Nc1nc2ccc(C(=O)c3cccs3)cc2[nH]1 [Nocodazole] | abolished | 
2 | C/C1=C\[C@H](C)C[C@H](C)OC(=O)C[C@H](c2ccc(O)cc2)NC(=O)[C@@H](Cc2c(Br)[nH]c3ccccc23)N(C)C(=O)[C@H](C)NC(=O)[C@@H](C)C1 [Jasplakinolide] |  | did not inhibit this movement
3 | C/C1=C/C(=O)O[C@@H]2C[C@@H](CC[C@H](C)/C=C\C=C\CC1)O[C@@](O)([C@@H]1CSC(=O)N1)C2 [LatrunculinA] | transport was preserved | 
